In the supplement of paper PMC11821682:

Tests used:
Danio rerio embryo [1] = assay: BMC10 any morphological effect or mortality at 120 hpf; higher = less toxic
Danio rerio embryo [2] = assay: LEL larval photomotor response dark phase 120 hpf
HL-60 = assay: Cell Health Index (toxicity pseudo-probability over dose series) (index 0-1); higher = more cytotoxic / cell stress;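 note: HL-60 cells exposed 4 h at 37 °C to ten threefold dilutions spanning 5 nM to 100 µM, multiparametric flow cytometry features scored by machine-learning classification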
Danio rerio embryo [3] = assay: BMC10 mortality 24-120 hpf; higher = less toxic
Description: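 ZBEscreen: dechorionated Tropical 5D zebrafish embryos were exposed from 4 hpf in 96-well plates (1% DMSO, 28 °C). All compounds were first tested at 100 µM; hits were retested at 0.005-100 µM. Morphology and mortality were scored at 120 hpf and fitted as BMC10 (3-parameter log-logistic, extra risk). The embryonic photomotor response at 24 hpf and the larval photomotor response at 120 hpf are given as lowest effect levels (K-S test, p<0.01). NA = not significant up to 100 µM; NT = not tested.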

Danio rerio embryo [4] = assay: LEL embryonic photomotor response 24 hpf

SMILES	BMC10 any morphological effect or mortality (Danio rerio embryo [1]) [µM]	LEL larval photomotor response dark phase 120 hpf (Danio rerio embryo [2]) [µM]	Cell Health Index (HL-60)	BMC10 mortality 24-120 hpf (Danio rerio embryo [3]) [µM]	LEL embryonic photomotor response 24 hpf (Danio rerio embryo [4]) [µM]
CCCCCCCCCCCCCCCC[n+]1ccn(Cc2ccccc2)c1C.[I-] [NH125 parent]	7.19	> 100	0.949	8.53	33.3
COc1cccc2c1C(=O)c1c(O)c3c(c(O)c1C2=O)C[C@@](O)(C(=O)CO)C[C@@H]3O[C@H]1C[C@H](N)[C@H](O)[C@H](C)O1.Cl [Doxorubicin]	3.18	> 100	0.852	7.71	11.1
COc1ccc2cc1Oc1ccc(cc1)C[C@H]1c3c(cc4c(c3Oc3cc5c(cc3OC)CCN(C)[C@@H]5C2)OCO4)CCN1C [Cepharanthine]	10.5	0.41	0.911	10.9	> 100
COc1ccc2c(O[C@@H]3C[C@H]4C(=O)N[C@]5(C(=O)NS(=O)(=O)C6CC6)C[C@H]5/C=C\CCCCN(C)C(=O)[C@@H]4C3)cc(-c3nc(C(C)C)cs3)nc2c1C.[Na] [Simeprevir]	3.6	> 100	0.903	5.01	> 100
O=c1cc(-c2ccccc2)oc2cc(O)cc(O)c12 [Chrysin]	28.6	11.1	0.435	28.3	33.3
CC(=O)Oc1ccccc1C(=O)Nc1ncc([N+](=O)[O-])s1 [Nitazoxanide]	44.9	> 100	0.723	45.9	> 100
CN1CCN(CCCN2c3ccccc3Sc3ccc(C(F)(F)F)cc32)CC1.Cl.Cl [Trifluoperazine]	3.55	> 100	0.898	4.13	11.1
CC[C@H]1CN2CCc3cc(OC)c(OC)cc3[C@@H]2C[C@@H]1C[C@H]1NCCc2cc(O)c(OC)cc21 [Cephaeline]	0.069	0.41	0.562	0.159	3.7
O=C1C=CC2=CC=C(OC)C(C/C=C(C)\C)=C2O1 [Osthole]	3.1	> 100	0.355	8.94	3.7
Fc1ccc(CNc2ncnc3ccc(F)cc23)cc1 [Spautin-1]	0.511	1.23	0.772	1.17	3.7
O[C@H]1CC[C@H](Nc2nc(-c3ccccc3)nc3[nH]ccc23)CC1 [Derenofylline]	22.7	> 100	0.201	36.8	100
O=c1cc(-c2cccc3c2Sc2ccccc2S3)oc(N2CCOCC2)c1	5.74	> 100	0.663	9.46	11.1
CCC[C@H](NC(=O)/C(C#N)=C/c1cccc(Br)n1)c1ccccc1 [Degrasyn]	0.411	> 100	0.909	1.92	1.23
Cl.Clc1ccc(Cn2c(CN3CCCC3)nc3ccccc32)cc1 [Clemizole]	4.04	> 100	0.453	10.1	3.7
O=c1c(O)c(-c2ccc(O)cc2)oc2cc(O)cc(O)c12 [Kaempferol]	10	> 100	0.463	38.4	> 100
N[C@H]1C[C@@H]1c1ccc(-c2cccc(O)c2)cc1 [OG-L002]	3.27	> 100	0.334	15.4	0.015

SMILES	BMC10 any morphological effect or mortality (Danio rerio embryo [1]) [µM]	LEL larval photomotor response dark phase 120 hpf (Danio rerio embryo [2]) [µM]	Cell Health Index (HL-60)	BMC10 mortality 24-120 hpf (Danio rerio embryo [3]) [µM]	LEL embryonic photomotor response 24 hpf (Danio rerio embryo [4]) [µM]
C[C@]12CC[C@H](O)C[C@H]1CC[C@@H]1[C@@H]2CC[C@]2(C)[C@@H](c3ccc(=O)oc3)C[C@H]3O[C@]132 [Bufogenin]	2.23	> 100	0.504	1.41	11.1
COc1ccc2nc3cc(Cl)ccc3c(Nc3cc(CN4CCCC4)c(O)c(CN4CCCC4)c3)c2n1.O=P(O)(O)O.O=P(O)(O)O.O=P(O)(O)O.O=P(O)(O)O [Pyronaridine]	1.18	> 100	0.929	3.65	3.7
O[C@H]1[C@@]2([H])[C@](CC[C@]2([H])[C@](O)(C)CC/C=C(C)/C)(C)[C@]3(C)CC[C@]4([H])[C@@](CC[C@H](O[C@]5([H])O[C@H](CO)[C@@H](O)[C@H](O)[C@H]5O)C4(C)C)(C)[C@@]3([H])C1 [20(S)-Ginsenoside Rh2]	> 100	> 100	0.787	9.35	11.1
CC(=O)c1c(O)cc(O)c(C(C)=O)c1O [2,4-Diacetylphloroglucinol]	1.45	> 100	0.669	3.32	3.7
CCCCCCC(=O)CCCCCC/C=C/C[C@@H](O)[C@H](O)[C@@](N)(CO)C(=O)O [Myriocin]	1.03	> 100	0.324	1.46	> 100
CCN(CC)CCOc1ccc2c(c1)C(=O)c1cc(OCCN(CC)CC)ccc1-2.Cl.Cl [Tilorone]	3.55	> 100	0.506	9.79	> 100
COC(=O)c1cc(OC)c2c(c1-c1c(CO)cc(OC)c3c1OCO3)OCO2 [Bicyclol]	4.07	> 100	0.207	10.7	0.046
OC1=C2C(C(C=C([C@@](O)([H])C/C=C(C)\C)C2=O)=O)=C(O)C=C1 [Shikonin]	1.08	> 100	0.884	1.73	3.7
O=C(Nc1ncc([N+](=O)[O-])s1)c1ccccc1O [Tizoxanide]	29.5	> 100	0.736	44.2	> 100
CCOC(=O)c1c(CSc2ccccc2)n(C)c2cc(Br)c(O)c(CN(C)C)c12.Cl [Umifenovir]	3.37	> 100	0.791	6.28	3.7
CC(C)c1cccc(=O)c(O)c1 [Hinokitiol]	3.83	> 100	0.335	10.1	33.3
C=C[C@H](OC(C)=O)c1ccc(OC(C)=O)cc1 (racemic) [(±)-1'-Acetoxychavicol acetate]	1.32	> 100	0.778	1.96	> 100
Cc1cc(CCCOc2c(C)cc(-c3noc(C(F)(F)F)n3)cc2C)on1 [Pleconaril]	1.15	> 100	0.48	6.8	0.41
CC(=O)O[C@H]1[C@H]2O[C@]23[C@@H]2CC[C@@H]4C[C@@H](O)CC[C@]4(C)[C@H]2CC[C@]3(C)[C@H]1c1ccc(=O)oc1 [Cinobufagin]	27.2	33.3	0.556	29.9	1.23
CC(=O)O[C@]1(C(C)=O)CC[C@H]2[C@@H]3C=C(C)C4=CC(=O)CC[C@]4(C)[C@H]3CC[C@@]21C [Megestryl acetate]	4.08	> 100	0.449	9.53	11.1
